Measurements reported in patent US7262185B2, “Benzazepine derivative, process for producing the same, and use” (Takeda Chemical Industries Ltd., priority 2001, dated 2007).

Tests used:
[1] = target: T1, human CCR5 chemokine receptor (Homo sapiens, UniProt P51681); experiment: Inhibition of [125I]-RANTES binding to CCR5/CHO cells (CCR5 antagonistic activity); settings: test compound 1 μM, [125I]-RANTES as ligand, room temperature; for Binding Inhibitory Ratio (%): 40 minutes; for inhibition at 1 µM: 40 min, read-out: Binding Inhibitory Ratio (%)
T1 construct: expressed in transfected cells
Description: Cloning of CCR5 gene from human spleen cDNA was conducted using the PCR method. Using spleen cDNA (0.5 ng) (TOYOBO CO., LTD, QUICK-Clone cDNA) as a template, PCR was performed in a DNA Thermal Cycler 480 (manufactured by Perkin Elmer) (reaction conditions: 30 cycles of 95° C. for 1 minute, 60° C. for 1 minute, and 75° C. for 5 minutes) by adding primer sets, SEQ. ID NO: 1 (sequence length: 34; sequence type: nucleic acid; chain number: single strand; topology: linear; kind of sequence: other nucleic acid synthetic. DNA) described in Experimental. Example (1) of WO 99/32100, and SEQ ID NO: 2 (sequence length: 34; sequence type: nucleic acid; chain number: single strand; topology: linear; kind of sequence: other nucleic acid synthetic. DNA) described in Experimental. Example (1) of WO 99/32100, (25 pmol, respectively), which were prepared referring to the nucleotide sequence of CCR5 gene, as reported by Samson et al. (Biochemistry 35 (11), 3362-3367 (1996)) and by using TaKaRa. EX Taq (Takara Shuzo). The resultant. PCR product was subjected to agarose gel electrophoresis to collect an approximately 1.0 kb. DNA fragment, which was subjected to an Original TA Cloning Kit (Funakoshi Co., Ltd.) to carry out cloning of CCR5 gene.
The plasmid obtained above was digested with restriction enzymes XbaI (Takara Shuzo Co., Ltd.) and BamHI (Takara Shuzo Co., Ltd.), and then subjected to agarose gel electrophoresis to collect DNA fragment of about 1.0 kb. The DNA fragment and plasmid pcDNA 3.1 (Funakoshi. Co., Ltd.) for expression in animal cells, which was previously digested with XbaI and BamHI, were mixed and ligated by DNA Ligation Kit Ver. 2 (Takara Shuzo Co., Ltd.). The resulting plasmid was subjected to transformation into. E. coli JM109 competent cells (Takara Shuzo Co., Ltd.) to obtain plasmid pCKR5.
CHO-K1 cells were cultured in a 750-ml tissue culture flask (Becton, Dickinson and Company.) using. Ham F12 medium (NIHON PHARMACEUTICAL CO., LTD.) containing 10% fetal bovine serum (Lifetech Oriental) and were collected using 0.5 g/L trypsin-0.2 g/L EDTA (Lifetech Oriental). The cells were washed with PBS (Lifetech Oriental), centrifuged (1000 rpm, 5 minutes), and suspended in PBS. The DNA was introduced into the cells using a Gene Pulser (Bio-Rad Laboratories, Inc.) under the following conditions. Namely, 8×10^6 cells and 10 μg of plasmid pCKR5 for expression of human CCR5 were placed in a cuvette having a 0.4-cm gap, and electroporation was carried out with a voltage 0.25 kV and 960 μF of capacitance. Then, the cells were transferred into Ham's. F12 medium containing 10% fetal bovine serum, and incubated for 24 hours. The cells were collected, centrifuged, and suspended in Ham' F12 medium containing 10% fetal bovine serum and Geneticin (Lifetech Oriental) at a concentration of 500 μg/ml. The suspension of cells was diluted to a concentration of 10^4 cells/ml, and was inoculated onto 96-well plate (Becton Dickinson), to obtain Geneticin-resistant strain.
Then, resulting. Geneticin-resistant strain were cultured on 96-well plate (Becton Dickinson), and CCR5-expressing cells were selected from the resistant cells. Namely, in an assay buffer, (Ham's F12 medium containing 0.5% BSA, and 20 mM HEPES (Wako Pure Chemical Ind., pH 7.2)) to which was added […][125I]-RANTES (Amersham) as a ligand, the cells were subjected to a binding reaction at room temperature for 40 minutes. Wells containing the cells were washed with ice-cooled PBS, and 50 μl/well of 1M NaOH was added and stirred. The cells to which the ligand was bound specifically, i.e., CCR5/CHO cells, were selected by measurement of radioactivity using a […].
The CCR5/CHO cells were inoculated onto 96-well microplate at a concentration of 5×10^4 cells/well, and were cultured for 24 hours. After removal of the medium by aspiration, to each well was added an assay buffer containing a test compound (1 μM), and [125I]/RANTES (Amersham) used as a ligand at a concentration of […]. […]

T1 sequence (P51681 whole entry): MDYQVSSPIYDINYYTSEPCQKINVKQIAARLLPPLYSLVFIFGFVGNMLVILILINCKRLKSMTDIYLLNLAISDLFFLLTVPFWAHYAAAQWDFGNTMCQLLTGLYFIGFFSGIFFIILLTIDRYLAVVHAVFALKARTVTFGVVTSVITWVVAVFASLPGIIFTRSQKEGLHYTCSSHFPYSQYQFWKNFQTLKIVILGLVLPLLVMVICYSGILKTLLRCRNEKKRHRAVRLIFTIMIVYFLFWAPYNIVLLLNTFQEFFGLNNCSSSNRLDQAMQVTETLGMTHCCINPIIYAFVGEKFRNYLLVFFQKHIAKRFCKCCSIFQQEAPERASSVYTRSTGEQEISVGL

| SMILES | inhibition at 1 µM [1] [%] | other results |
| --- | --- | --- |
| CCCCOCCOc1ccc(-c2ccc3c(c2)C=C(C(=O)Nc2ccc([S+]([O-])Cc4cncn4CCC)cc2)CCN3CC(C)C)cc1 (single isomer, unassigned; (-)) [Compound 373, (−)-7-[4-(2-butoxyethoxy)phenyl]-1-isobutyl-N-[4-[[[1-propylimidazol-5-yl]methyl]sulfinyl]phenyl]-2,3-dihydro-1-benzazepine-4-carboxamide] |  | Binding Inhibitory Ratio (%) [1]: 94% |
| CCCCOCCOc1ccc(-c2ccc3c(c2)C=C(C(=O)Nc2ccc([S+]([O-])Cc4cncn4CCC)cc2)CCN3CCC)cc1 (single isomer, unassigned; (-)) [Compound 378, (−)-7-[4-(2-butoxyethoxy)phenyl]-1-propyl-N-[4-[[[1-propylimidazol-5-yl]methyl]sulfinyl]phenyl]-2,3-dihydro-1-benzazepine-4-carboxamide] |  | Binding Inhibitory Ratio (%) [1]: 87% |
| CCCCOCCOc1ccc(-c2ccc3c(c2)C=C(C(=O)Nc2ccc([S+]([O-])Cc4nccn4CCCC(N)=O)cc2)CCN3CC(C)C)cc1 (single isomer, unassigned; (-)) [Compound 418, (−)-N-[4-[[[1-(4-amino-4-oxobutyl)-1H-imidazol-2-yl]methyl]sulfinyl]phenyl]-7-[4-(2-butoxyethoxy)phenyl]-1-isobutyl-2,3-dihydro-1H-1-benzazepine-4-carboxamide] | 92 |  |
| CCCCOCCOc1ccc(-c2ccc3c(c2)C=C(C(=O)Nc2ccc(C(O)c4cccc[n+]4[O-])c(C(F)(F)F)c2)CCN3CCC)cc1 (stereo not drawn) [Compound 13, 7-[4-(2-butoxyethoxy)phenyl]-N-[4-[hydroxy(1-oxidopyridin-2-yl)methyl]-3-trifluoromethylphenyl]-1-propyl-2,3-dihydro-1H-1-benzazepine-4-carboxamide] | 100 |  |
| CCCCOCCOc1ccc(-c2ccc3c(c2)C=C(C(=O)Nc2ccc(OCc4nncn4CCC)cc2)CCN3CC(C)C)cc1 [Compound 26, 7-[4-(2-butoxyethoxy)phenyl]-1-isobutyl-N-[4-[(4-propyl-4H-1,2,4-triazol-3-yl)methoxy]phenyl]-2,3-dihydro-1H-1-benzazepine-4-carboxamide] | 97 |  |
| CCCCOCCOc1ccc(-c2ccc3c(c2)C=C(C(=O)Nc2ccc(SCc4nncn4CCC)nc2)CCN3CC(C)C)cc1 [Compound 53, 7-[4-(2-butoxyethoxy)phenyl]-1-isobutyl-N-[2-(4-propyl-4H-1,2,4-triazol-3-yl)methylthiopyridin-5-yl]-2,3-dihydro-1H-1-benzazepine-4-carboxamide] | 98 |  |
| CCCCOCCOc1ccc(-c2ccc3c(c2)C=C(C(=O)Nc2ccc([S+]([O-])CC4=NNCN4CCC)nn2)CCN3CC(C)C)cc1 (stereo not drawn) [Compound 68, 7-[4-(2-butoxyethoxy)phenyl]-1-isobutyl-N-[6-[(4-propyl-1H-1,2,4-triazol-3-yl)methylsulfinyl]pyridazin-3-yl]-2,3-dihydro-1H-1-benzazepine-4-carboxamide] | 97 |  |
| CCCCOCCOc1ccc(-c2ccc3c(c2)C=C(C(=O)Nc2ccc([S+]([O-])Cc4cncn4C4CC4)cc2)CCN3CC(C)C)cc1 (stereo not drawn) [Compound 74, 7-[4-(2-butoxyethoxy)phenyl]-1-isobutyl-N-[4-[(3-cyclopropylimidazol-4-yl)methylsulfinyl]phenyl]-2,3-dihydro-1H-1-benzazepine-4-carboxamide] | 97 |  |
| CCCCOCCOc1ccc(-c2ccc3c(c2)C=C(C(=O)Nc2ccc([C@H](O)c4cccc[n+]4[O-])cc2)CCN3CC(C)C)cc1 [Compound 85, 7-[4-(2-butoxyethoxy)phenyl]-N-[4-[(S)-hydroxy(1-oxidopyridin-2-yl)methyl]phenyl]-1-isobutyl-2,3-dihydro-1H-1-benzazepine-4-carboxamide] | 92 |  |
| CCCCOCCOc1ccc(-c2ccc3c(c2)C=C(C(=O)Nc2ccc(CSc4nncn4C)cc2)CCN3CC(C)C)cc1 [Compound 117, 7-[4-(2-butoxyethoxy)phenyl]-N-[4-(4-methyl-4H-1,2,4-triazol-3-ylthiomethyl)phenyl]-1-isobutyl-2,3-dihydro-1H-1-benzazepine-4-carboxamide] | 95 |  |
| CCCCOCCOc1ccc(-c2ccc3c(c2)C=C(C(=O)Nc2ccc(SCc4nncn4C)cc2)CCN3CC(C)C)cc1 [Compound 130, 7-[4-(2-butoxyethoxy)phenyl]-N-[4-(4-methyl-4H-1,2,4-triazol-3-ylmethylthio)phenyl]-1-isobutyl-2,3-dihydro-1H-1-benzazepine-4-carboxamide] | 100 |  |
| CCCCOCCOc1ccc(-c2ccc3c(c2)C=C(C(=O)Nc2ccc([S+]([O-])Cc4nncn4CCC)cc2)CCN3CCC)cc1 (stereo not drawn) [Compound 141, 7-[4-(2-butoxyethoxy)phenyl]-1-propyl-N-[4-(4-propyl-4H-1,2,4-triazol-3-ylmethylsulfinyl)phenyl]-2,3-dihydro-1H-benzazepine-4-carboxamide] | 100 |  |
| CCCCOCCOc1ccc(-c2ccc3c(c2)C=C(C(=O)Nc2ccc(CCc4nncn4CCC)cc2)CCN3CC(C)C)cc1 [Compound 152, 7-[4-(2-butoxyethoxy)phenyl]-1-isobutyl-N-[4-[2-(4-propyl-4H-1,2,4-triazol-3-yl)ethyl]phenyl]-2,3-dihydro-1H-benzazepine-4-carboxamide] | 97 |  |
| CCCCOCCOc1ccc(-c2ccc3c(c2)C=C(C(=O)Nc2ccc(SCCn4cnnc4)cc2)CCN3CC(C)C)cc1 [Compound 154, 7-[4-(2-butoxyethoxy)phenyl]-N-[4-(4H-1,2,4-triazol-4-ylethylthio)phenyl]-1-isobutyl-2,3-dihydro-1H-benzazepine-4-carboxamide] | 100 |  |
| CCCCOCCOc1ccc(-c2ccc3c(c2)C=C(C(=O)Nc2ccc(/C(Cc4nccn4CCC)=N/OC)cc2)CCN3CC(C)C)cc1 [Compound 448, 7-[4-(2-butoxyethoxy)phenyl]-1-isobutyl-N-[4-((1E)-N-methoxy-2-(1-propylimidazol-2-yl)ethanimidoyl)phenyl]-2,3-dihydro-1H-1-benzazepine-4-carboxamide] |  | melting point: 159 to 161 °C |
| CCCCOCCOc1ccc(-c2ccc3c(c2)C=C(C(=O)Nc2ccc(/C(Cc4nccn4CCC)=N/O)cc2)CCN3CC(C)C)cc1 [Compound 450, 7-[4-(2-butoxyethoxy)phenyl]-N-[4-((1E)-N-hydroxy-2-(1-propylimidazol-2-yl)ethaneimidoyl)phenyl]-1-isobutyl-2,3-dihydro-1H-1-benzazepine-4-carboxamide] |  | melting point: 153.5 to 154.5 °C |
| CCCCOCCOc1ccc(-c2ccc3c(c2)C=C(C(=O)Nc2ccc(CC(=O)c4nccn4CCC)cc2)CCN3CC(C)C)cc1 [Compound 451, 7-[4-(2-butoxyethoxy)phenyl]-1-isobutyl-N-[4-(2-oxo-2-(1-propylimidazol-2-yl)ethyl)phenyl]-2,3-dihydro-1H-1-benzazepine-4-carboxamide] |  | melting point: 136.5 to 138 °C |
| CCCCOCCOc1ccc(-c2ccc3c(c2)C=C(C(=O)Nc2ccc(C/C(=N/O)c4nccn4CCC)cc2)CCN3CC(C)C)cc1 [Compound 453, 7-[4-(2-butoxyethoxy)phenyl]-N-[4-((2Z)-2-(hydroxyimino)-2-(1-propylimidazol-2-yl)ethyl)phenyl]-1-isobutyl-2,3-dihydro-1H-1-benzazepine-4-carboxamide] |  | melting point: 187.5 to 189.5 °C |
